Source: article PMC8940841, “A metabolically stable PET tracer for imaging synaptic vesicle protein 2A: synthesis and preclinical characterization of [^18F]SDM-16” (European Journal of Nuclear Medicine and Molecular Imaging, 2021)
Read-outs that look alike come from different tables or passages of the source.

Columns and labels:
[1] = Measurement of lipophilicity (octanol / PBS pH 7.4); type: physicochemical; details: octanol/PBS pH 7.4
Procedure: The logP of [^18F]SDM-16 was determined by a method modified from previously published procedures. Briefly, an aliquot of […] (10 µCi) of the radioligand was added to a 2-mL microtube containing 0.8 mL of octanol and 0.8 mL of 1 × phosphate buffered saline (1 × PBS, pH 7.4). The mixture was vortexed for 30 s and then centrifuged at 2000 g for 2 min. A subsample of the octanol (0.1 mL) and 1 × PBS (0.5 mL) layers was evaluated with a gamma counter. The major portion of the octanol layer (0.5 mL) was diluted with another 0.3 mL of octanol, mixed with a fresh portion of 0.8 mL of PBS, vortexed, centrifuged, and analyzed as described above. This process was repeated until consistent log P values were obtained, with five consecutive equilibration procedures being performed for each logP measurement. Four separate measurements were performed for [^18F]SDM-16 on different days.

[2] = Plasma free fraction (fp) by ultrafiltration; type: in vitro ADME, rhesus monkey; details: monkey, plasma (separated from spiked whole blood)
Procedure: The unbound fraction of [^18F]SDM-16 in plasma (fp) of rhesus monkey was measured in triplicate using the ultrafiltration method. Briefly, [^18F]SDM-16 solution was added to 3 mL of whole blood. After incubation at ambient temperature for 5 min, the blood sample was centrifuged at 3900 rpm for 5 min. A sample of the supernatant plasma (0.3 mL) was loaded onto the reservoir of a Centrifree® Ultrafiltration device (Merck Millipore Ltd. Tullagreen, Carrigtwohill, Co. Cork, IRELAND) in triplicate and centrifuged at 1228 g for 20 min. The fp value was calculated as the ratio of radioactivity in the filtrate to that in the plasma.

[3] = Plasma radiometabolite analysis during PET scans; type: in vivo, rhesus monkeys; details: 30 min p.i.
Procedure: Arterial blood samples were collected during the PET scans to measure the radioactivity in plasma for generation of the metabolite-corrected arterial plasma input function. Plasma radiometabolite analysis was performed using the column-switching method, following a published protocol. Briefly, arterial blood samples were collected at 3-, 8-, 15-, 30-, 60-, 90-, 120-, and 180-min post-injection (p. i.), treated with urea (8 M), filtered, and injected onto a self-packed short column (4.6 × 19 mm) eluting with 1% MeCN in water at a flow rate of 2 mL/min. The sample was then back flushed onto a Gemini-NX column (5 μm, 4.6 mm × 250 mm) eluting with 40% MeCN/60% 0.1 M ammonium formate (pH 6.4) at a flow rate of 1.2 mL/min. The eluent was fraction-collected using an automated spectrum chromatography CF-1 fraction collector. Activity in the whole blood, plasma, filtrated plasma-urea mix, filters, and HPLC fractions were counted with automatic gamma well-counter (Wizard 2, PerkinElmer). The sample recovery rate, extraction efficiency, and HPLC fraction recovery were monitored. The unmetabolized [^18F]SDM-16 parent fraction was determined as the ratio of the sum of radioactivity in fractions containing the parent compound to the total amount of radioactivity collected and fitted with inverted Gamma4 approaches.
[^18F]SDM-16 had higher metabolite-corrected plasma SUV than the other SV2A radiotracers, indicating slower plasma clearance and higher metabolic stability (Fig. 2a). Whole-blood and plasma-input functions were highly consistent between the two animals, with a stable plasma to whole-blood ratio of 0.93 ± 0.13 over the entire 180-min acquisition period (Fig. S1).

[4] = Free base fraction in plasma by modified Henderson-Hasselbalch equation (Eq. 1); details: Eq. 1, plasma pH 7.4
SV2A [5] = details: cited from earlier work; for VT (baseline): 1TC
[6] = female rhesus macaques, 1-h voiding model; cited from earlier work
SV2A [7] = target: SV2A (Macaca mulatta, UniProt H9EQH8); details: previously determined; cited from earlier work
[8] = Brain PET imaging with 1TC kinetic modeling; details: rhesus monkey, in vivo
Procedure: (§1) A total of 10 PET imaging experiments with [^18F]SDM-16 were performed in rhesus monkeys (Macaca mulatta) according to a protocol approved by the Yale University Institutional Animal Care and Use Committee (IACUC). Four monkeys were studied. […] Body temperature was maintained by a water-jacket heating pad. The animal was attached to a physiological monitor, and vital signs (heart rate, blood pressure, respirations, SPO2, EKG, ETCO2, and body temperature) were continuously monitored. A venous line was inserted in one limb for administration of radiotracer, displacement, and blocking drugs. A catheter was placed in the femoral artery in the other limb for blood sampling. Dynamic PET brain scans were performed on a Focus 220 system (Siemens Medical Solutions, Knoxville, TN, USA) with a reconstructed image resolution of approximately 1.5 mm. After a 9-min transmission scan, the radioligand was injected i.v. over 3 min. by an infusion pump. Dynamic PET scans were performed for 3 h (baseline and blocking scans) or 4 h (displacement scan).
(§2) PET images were reconstructed with built-in corrections for attenuation, normalization, scatter, randoms, and deadtime. PET brain images were registered to the animal’s MR image, which was subsequently registered to a brain atlas to define the regions of interest. Dynamic images were reconstructed using a Fourier rebinning and filtered back projection algorithm. A rhesus monkey brain atlas was used for generation of regions of interest (ROIs) and time − activity curves (TACs) for the following ROIs: amygdala, brain stem, caudate nucleus, centrum semiovale (CS), cerebellum, cingulate cortex, frontal cortex, globus pallidus, hippocampus, insula, nucleus accumbens, occipital cortex, pons, putamen, substantia nigra, temporal cortex, and thalamus.
(§3) Volume of distribution (VT, mL·cm^−3) values and the first-order kinetic rate constants of tracer (K1) were derived through 1-tissue (1T) compartment kinetic modeling with the metabolite-corrected arterial plasma input function, which was calculated as the product of the fitted total plasma curve and the parent radiotracer fraction curve. Nondisplaceable volume of distribution (VND) and SV2A occupancy by LEV was calculated using the Lassen plot [32]. Nondisplaceable binding potential (BPND) values were calculated from VT values using CS as reference region, or the VND derived from the blocking study, i.e., BPND = (VT, ROI − VT, CS)/ VT, CS or BPND = (VT/VND) -1.

SV2A [9] = experiment: Brain PET imaging with 1TC kinetic modeling
Procedure: as §1, §2, §3

[10] = parameters: method as in PMID 33826008; details: 30 min p.i.; cited from earlier work
[11] = estimated from human; cited from earlier work
[12] = conjugate acid; cited from earlier work

Sequence of SV2A (Macaca mulatta, UniProt H9EQH8) (H9EQH8 1-742): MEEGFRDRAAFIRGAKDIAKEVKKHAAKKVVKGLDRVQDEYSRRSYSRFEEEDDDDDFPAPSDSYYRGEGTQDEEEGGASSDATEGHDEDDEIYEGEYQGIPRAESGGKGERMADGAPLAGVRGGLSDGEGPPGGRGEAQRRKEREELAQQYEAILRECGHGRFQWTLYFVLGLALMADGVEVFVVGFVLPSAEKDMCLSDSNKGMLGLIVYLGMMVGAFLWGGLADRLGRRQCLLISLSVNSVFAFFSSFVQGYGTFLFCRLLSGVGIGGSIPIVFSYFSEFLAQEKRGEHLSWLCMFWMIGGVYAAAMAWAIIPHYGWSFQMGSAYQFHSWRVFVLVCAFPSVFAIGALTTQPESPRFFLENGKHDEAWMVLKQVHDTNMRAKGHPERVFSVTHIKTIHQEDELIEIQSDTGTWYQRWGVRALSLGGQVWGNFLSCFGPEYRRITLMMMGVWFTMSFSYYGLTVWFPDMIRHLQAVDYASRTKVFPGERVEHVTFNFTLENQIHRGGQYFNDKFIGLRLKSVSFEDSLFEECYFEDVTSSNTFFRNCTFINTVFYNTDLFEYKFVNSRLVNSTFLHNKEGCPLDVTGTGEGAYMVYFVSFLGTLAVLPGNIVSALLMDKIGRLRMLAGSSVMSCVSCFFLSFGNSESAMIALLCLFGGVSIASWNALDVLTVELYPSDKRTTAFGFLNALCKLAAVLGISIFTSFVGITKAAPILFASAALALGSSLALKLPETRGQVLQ

Compound: Cc1cnccc1CN1C[C@@H](c2cc(F)cc([18F])c2)CC1=O [[^18F]SynVesT-1]
- logP [1]: 2.32
- fraction unbound at 5 min [2]: 0.43
- parent fraction in plasma [3]: 42 ± 13%
- fraction present in plasma as free base [4]: 81%
- VT (baseline) (SV2A [5]; Amygdala): 24.8 ± 8.5 mL/cm^3
- VT (baseline) (SV2A [5]; Brainstem): 16.3 ± 3.6 mL/cm^3
- VT (baseline) (SV2A [5]; Caudate): 35.0 ± 6.3 mL/cm^3
- VT (baseline) (SV2A [5]; Centrum semiovale): 8.9 ± 2.0 mL/cm^3
- VT (baseline) (SV2A [5]; Cerebellum): 28.9 ± 6.8 mL/cm^3
- VT (baseline) (SV2A [5]; Cingulate cortex): 48.5 ± 8.9 mL/cm^3
- VT (baseline) (SV2A [5]; Frontal cortex): 47.1 ± 9.1 mL/cm^3
- VT (baseline) (SV2A [5]; Globus pallidus): 21.6 ± 4.2 mL/cm^3
- VT (baseline) (SV2A [5]; Hippocampus): 30.1 ± 5.6 mL/cm^3
- VT (baseline) (SV2A [5]; Insular cortex): 46.1 ± 9.2 mL/cm^3
- VT (baseline) (SV2A [5]; Nucleus accumbens): 45.2 ± 7.9 mL/cm^3
- VT (baseline) (SV2A [5]; Occipital cortex): 43.7 ± 10.7 mL/cm^3
- VT (baseline) (SV2A [5]; Putamen): 34.6 ± 4.9 mL/cm^3
- VT (baseline) (SV2A [5]; Temporal cortex): 42.2 ± 10.0 mL/cm^3
- VT (baseline) (SV2A [5]; Thalamus): 34.2 ± 3.0 mL/cm^3
- effective dose (ED) [6]: 20 µSv/MBq
- VND (SV2A [7]): 4.96 mL/cm^3
- fraction unbound [8]: 0.101
- BPND, VND method (SV2A [9]; Amygdala): 4.24 ± 4.05
- BPND, VT(CS) method (SV2A [9]; Amygdala): 1.9 ± 1.1
- K1 (SV2A [9]; Amygdala): 0.56 ± 0.36 mL/cm^3 per min
- BPND, VND method (SV2A [9]; Anterior cingulate): 8.44 ± 4.27
- BPND, VT(CS) method (SV2A [9]; Anterior cingulate): 4.1 ± 0.7
- K1 (SV2A [9]; Anterior cingulate): 1.05 ± 0.66 mL/cm^3 per min
- BPND, VND method (SV2A [9]; Brainstem): 2.30 ± 0.99
- BPND, VT(CS) method (SV2A [9]; Brainstem): 0.8 ± 0.0
- K1 (SV2A [9]; Brainstem): 1.37 ± 1.26 mL/cm^3 per min
- BPND, VND method (SV2A [9]; Caudate): 6.23 ± 2.96
- BPND, VT(CS) method (SV2A [9]; Caudate): 3.0 ± 0.4
- K1 (SV2A [9]; Caudate): 0.95 ± 0.49 mL/cm^3 per min
- BPND, VND method (SV2A [9]; Cerebellum): 4.74 ± 1.81
- BPND, VT(CS) method (SV2A [9]; Cerebellum): 2.2 ± 0.2
- K1 (SV2A [9]; Cerebellum): 0.88 ± 0.41 mL/cm^3 per min
- BPND, VND method (SV2A [9]; Cingulate cortex): 9.04 ± 3.59
- BPND, VT(CS) method (SV2A [9]; Cingulate cortex): 4.5 ± 0.4
- BPND, VND method (SV2A [9]; Frontal cortex): 8.64 ± 3.59
- BPND, VT(CS) method (SV2A [9]; Frontal cortex): 4.3 ± 0.6
- K1 (SV2A [9]; Frontal cortex): 0.79 ± 0.39 mL/cm^3 per min
- BPND, VND method (SV2A [9]; Globus pallidus): 3.42 ± 1.90
- BPND, VT(CS) method (SV2A [9]; Globus pallidus): 1.4 ± 0.3
- K1 (SV2A [9]; Globus pallidus): 0.73 ± 0.49 mL/cm^3 per min
- in vivo Kd ratio, Kd(tracer)/Kd([^18F]SDM-16) (SV2A [9]; Guo plot of baseline VT): 0.41
- BPND, VND method (SV2A [9]; Hippocampus): 5.19 ± 2.56
- BPND, VT(CS) method (SV2A [9]; Hippocampus): 2.4 ± 0.4
- K1 (SV2A [9]; Hippocampus): 0.68 ± 0.34 mL/cm^3 per min
- BPND, VND method (SV2A [9]; Insular cortex): 8.41 ± 3.27
- BPND, VT(CS) method (SV2A [9]; Insular cortex): 4.2 ± 0.3
- K1 (SV2A [9]; Insular cortex): 0.93 ± 0.48 mL/cm^3 per min
- K1 (SV2A [9]; Mean ± SD over brain regions): 0.91 ± 0.28 mL/cm^3 per min
- BPND, VND method (SV2A [9]; Nucleus accumbens): 8.41 ± 3.54
- BPND, VT(CS) method (SV2A [9]; Nucleus accumbens): 4.1 ± 0.4
- K1 (SV2A [9]; Nucleus accumbens): 0.99 ± 0.63 mL/cm^3 per min
- BPND, VND method (SV2A [9]; Occipital cortex): 7.61 ± 2.51
- BPND, VT(CS) method (SV2A [9]; Occipital cortex): 3.9 ± 0.2
- K1 (SV2A [9]; Occipital cortex): 0.88 ± 0.47 mL/cm^3 per min
- BPND, VND method (SV2A [9]; Putamen): 6.41 ± 2.96
- BPND, VT(CS) method (SV2A [9]; Putamen): 2.9 ± 0.4
- K1 (SV2A [9]; Putamen): 1.25 ± 0.82 mL/cm^3 per min
- BPND, VND method (SV2A [9]; Temporal cortex): 7.36 ± 2.64
- BPND, VT(CS) method (SV2A [9]; Temporal cortex): 3.7 ± 0.3
- K1 (SV2A [9]; Temporal cortex): 0.74 ± 0.34 mL/cm^3 per min
- BPND, VND method (SV2A [9]; Thalamus): 6.59 ± 3.72
- BPND, VT(CS) method (SV2A [9]; Thalamus): 2.9 ± 0.7
- K1 (SV2A [9]; Thalamus): 0.93 ± 0.71 mL/cm^3 per min

Compound: O=C1C[C@H](c2cc(F)c(F)c(F)c2)CN1Cc1ccncc1[18F] [[^18F]UCB-H]
- logP [1]: 2.31
- fraction unbound at 5 min [2]: 0.43
- parent fraction in plasma [10]: 30 ± 3%
- brain tissue free fraction fND (SV2A [5]; calculated from K1/k2 using 2TCM-c): 6.1%
- effective dose (ED) [11]: 15.4 µSv/MBq
- VND (SV2A [7]): 7.89 mL/cm^3

Compound: lutidine
- pKa exp. [12]: 6.77
